According to patent publication US10918644B2, “Chemotherapeutic drug composition” (YEDITEPE UNIVERSITESI, priority 2017, dated 2021):
Values joined by “and” are separate entries in the source; they are usually repeats but may differ in a detail not shown here. Equal values may be shown once. “Also recorded” adds a separate entry of the source.

Tests used:
[1] = test system: mTOR pathway in A-498 cells; assay: Western Blotting of mTOR pathway proteins, A-498 cells; type: cell-based; settings: 1 μM Everolimus alone or with 5 μM ABT-737, 24 hours
Protocol: (§1) A-498 and Caki-1 RCC cells were used to investigate the molecular effect of the Everolimus and ABT-737 drug composition on the mTOR pathway. A-498 cells and Caki-1 cells seeded in 6-well plates were treated for 24 hours with 1 μM Everolimus and 5 μM ABT-737 and 1 μM Everolimus and 10 μM ABT-737, respectively. At the end of 24 hours, proteins were isolated from the cells. These proteins were then used to determine the expression of proteins that play a key role in the mTOR pathway by performing the Western Blotting technique.

[2] = test system: Everolimus-resistant RenCa (erRenCa) cells; assay: In vivo tumor model with erRenCa cells injected into the dorsal area; parameters: species or system Balb/c mice; settings: for animals with tumor formation: 2 mg/kg Everolimus and/or 75 mg/kg ABT-737 intraperitoneally every other day from day 4, 11 injections, eight animals per group
Protocol: Everolimus stock solution was prepared by dissolving 10 mg lyophilized Everolimus in 1.043 ml DMSO (Dimethyl sulfoxide) (9.6 mg/ml) and ABT-737 stock solution was prepared by dissolving 10 mg ABT-737 in 1.229 ml DMSO (8.14 mg/ml). Stock concentration of both drugs was 10 mM. For in vitro conditions, dilutions were made in cell culture medium at concentrations ranging from 1-5 μM from Everolimus stock concentration. For in vivo conditions, the drug Everolimus that will be injected to animals was prepared by diluting the stock concentration in PBS (Phosphate-buffered saline) to a concentration of 2 mg/kg. For in vitro conditions, dilutions were made in cell culture medium at concentrations ranging from 1-10 μM from ABT-737 stock concentration. For in vivo conditions, the drug ABT-737 that will be injected to animals was prepared by diluting the stock concentration in PBS (Phosphate-buffered saline) to a concentration of 75 mg/kg. Prior to injection, the volume of the injected drug is adjusted to 200 μl by addition of PBS (Phosphate-buffered saline). The drugs were injected into the animals separately one minute apart without being mixed.
(§2) The process of tumor development was monitored.
These erRenCa kidney cancer cells were used as a cancer cell line to form a kidney cancer tumor model in animals. For this purpose, cells were subcutaneously injected into the dorsal area of Balb/c mice. […] The experiment was terminated at the end of 11 injections. […] In order to develop resistance to Everolimus, erRenCa cells inactivated their mTOR pathway and began to use the Bcl-2 pathway for their survival. Therefore, cancer cells could only undergo cell death after blocking the anti-apoptotic Bcl-2 survival pathway with the drug ABT-737.

[3] = cited from earlier work; for prolonged progression-free survival: treatment of metastatic RCC
Caki-1 cells [4] = assay: WST-1 cell viability assay, Caki-1 cells; type: cell-based
Protocol: (§3) The WST-1 assay was performed to determine cell viability. The working principle of this assay is based on the conversion of the stable tetrazolium salt WST-1 into soluble formazan by viable cells. During conversion of WST-1 to formazan, a color change that is measurable at 450 and 630 nm wavelengths occurs in the cell medium. In other words, the amount of formazan dye is proportional to the number of metabolically active (viable) cells. The color change was evaluated by measuring the absorbance in the ELISA device and the obtained values were analyzed using the Graph Pad Prism 7 database.
(§4) To determine the toxic effect of Everolimus and ABT-737 on cell viability, primary A-498 and metastatic Caki-1 RCC cell lines that are resistant to drug Everolimus were used in this study and the toxic effect was determined by using the WST-1 method.
(§5) Everolimus and ABT-737 drugs were administered to A-498 and Caki-1 cells, which were seeded in 96-well culture plates, for three days to determine the appropriate dose for the combination. The effect of the drugs prepared at three different concentrations (1, 5, or 10 μM) on cell viability was determined using the WST-1 method. […] The amount of drug composition for Caki-1 (10,000 cells/well) metastatic cells was determined as 1 μM Everolimus and 10 μM ABT-737. […]

[5] = test system: Everolimus-resistant RenCa (erRenCa) cells; assay: WST-1 cell viability assay, Everolimus-resistant RenCa cells; type: cell-based, murine; settings: Everolimus 1, 5 and 10 μM, at the end of three days
Protocol: as §3
RenCa cells were made resistant to Everolimus for the use in in vivo experiments. In this regard, RenCa cells were seeded in 96-well culture plates. After 24 hours, the cells were treated with 1 μM Everolimus for 72 hours. At the end of 72 hours, the cells were washed with PBS (Phosphate-buffered saline) and treated with 10 μM Everolimus for an additional 72 hours. Cells that developed resistance to Everolimus were transferred to 6-well culture plates and were grown in an Everolimus-free medium. Cells reaching a density of 90% were transferred to T-75 culture plates and were grown for 2 months in a medium containing 1 μM Everolimus.
as §2

[6] = mouse, in vivo
Excerpt: At the end of the experiment, the organs including thymus, heart, stomach, intestine, kidney, spleen, testis, lung, liver, and brain were taken from the animals in each group and were sent for pathological examination. […] At the same time, the metastatic focus in these tissues was also examined.

[7] = test system: mTOR pathway in Caki-1 cells; assay: Western Blotting of mTOR pathway proteins, Caki-1 cells; type: cell-based; settings: 1 μM Everolimus alone or with 10 μM ABT-737, 24 hours
Protocol: as §1

HEK293 cells = assay: WST-1 cell viability assay on healthy kidney cells (toxicity); type: cell-based, human
Protocol: as §3
Human embryonic kidney (HEK293) cells were used as a cell model to test whether Everolimus and ABT-737 had any toxic effects on healthy kidney cells. HEK293 cells were treated with the drug composition (1 μM for Everolimus and 5 μM for ABT-737) for 3 days and the toxicity response was determined by measuring cell viability by WST-1 assay for 3 days.

RenCa cells = assay: WST-1 cell viability assay, RenCa cells; type: cell-based, murine; settings: Everolimus 1, 5 and 10 μM, after 48 hours of treatment
Protocol: as §3, §2

A-498 cells = assay: WST-1 cell viability assay, A-498 cells; type: cell-based; settings: Everolimus monotherapy, 1, 5 or 10 μM, three days
Protocol: as §3, §4, §5

Caki-1 cells [8] = assay: Annexin-V cell death detection assay, Caki-1 cells; type: cell-based; settings: 1 μM Everolimus and 10 μM ABT-737, or ABT-737 monotherapy; 24, 48 and 72 hours
[9] = Everolimus group, 2 mg/kg intraperitoneally every other day, 2 mg/kg
[10] = ABT-737 group, 75 mg/kg intraperitoneally every other day

CO[C@H]1C[C@@H]2CC[C@@H](C)[C@@](O)(O2)C(=O)C(=O)N2CCCC[C@H]2C(=O)O[C@H]([C@H](C)C[C@@H]2CC[C@@H](OCCO)[C@H](OC)C2)CC(=O)[C@H](C)/C=C(\C)[C@@H](O)[C@@H](OC)C(=O)[C@H](C)C[C@H](C)/C=C/C=C/C=C/1C [Everolimus]
S6 protein phosphorylated at serine 240/244 (S6-S240/244P) [1]: decrease
basal p70S6K protein expression ([1]; vs control cells): decreased
p70S6K protein phosphorylated at threonine 389 (p70S6K-T389P) ([1]; vs control cells): decrease
autophosphorylation of the mTOR kinase at serine 2448 (mTOR-S2448P) ([1]; vs untreated control cells): diminished
animals with tumor formation [2]: four of the eight
Grade (WHO/ISUP, per animal H1-H8) [2, 9]: 4 (3×) and 2
Necrosis (per animal H1-H8) [2, 9]: No (7×) and Yes
Tumor (pathological examination, per animal H1-H8) [2, 9]: Renal cell carcinoma; also recorded: No tumor
increase of survival ([3]; advanced stage RCC, Phase III clinical trials, after failure of VEGF therapy): about 4.9 months
prolonged progression-free survival [3]: up to 4.9 months
response of cell viability to Everolimus (toxicology results) (Caki-1 cells [4]; Everolimus monotherapy, 1, 5 or 10 μM, three days): resistant
change in cell viability [5]: did not cause any change
toxic effects on the animals (pathological examination of the tissues) [6]: did not show any toxic effects
S6 protein phosphorylated at serine 240/244 (S6-S240/244P) [7]: decrease
basal p70S6K protein expression ([7]; vs control cells): decreased
p70S6K protein phosphorylated at threonine 389 (p70S6K-T389P) ([7]; vs control cells): decrease
autophosphorylation of the mTOR kinase at serine 2448 (mTOR-S2448P) ([7]; vs untreated control cells): diminished
cytotoxic effect on healthy kidney cells (HEK293 cells; 1 μM Everolimus, 24 and 48 hours): did not show any cytotoxic effect
decrease in the cell viability compared to untreated control cells (HEK293 cells; 1 μM Everolimus, 72 hour-treatment): 50%
effect on cell viability (RenCa cells): caused toxic effects
response of cell viability to Everolimus (toxicology results) (A-498 cells): resistant

CNC(=O)c1cc(Oc2ccc(NC(=O)Nc3ccc(Cl)c(C(F)(F)F)c3)cc2)ccn1 [Sorafenib]
prolonged progression-free survival [3]: up to 5.9 months

CN(C)CC[C@H](CSc1ccccc1)Nc1ccc(S(=O)(=O)NC(=O)c2ccc(N3CCN(Cc4ccccc4-c4ccc(Cl)cc4)CC3)cc2)cc1[N+](=O)[O-] [ABT-737]
animals with tumor formation [2]: three of the eight
Grade (WHO/ISUP, per animal H1-H8) [2, 10]: 4
Necrosis (per animal H1-H8) [2, 10]: No
Tumor (pathological examination, per animal H1-H8) ([2]; ABT-737 group, 75 mg/kg intraperitoneally every other day, 75 mg/kg): No tumor; also recorded: Renal cell carcinoma
decrease in cell viability (Caki-1 cells [4]; ABT-737 monotherapy, after 72 hours): 80%
toxic effects on the animals (pathological examination of the tissues) [6]: did not show any toxic effects
decrease in the cell viability of healthy kidney cells (HEK293 cells; 5 μM ABT-737, third day of the treatment): did not cause any decrease
apoptosis mediated cell death (Annexin-V) (Caki-1 cells [8]): more significant increase in the cell death compared to the combination

CO[C@H]1C[C@@H]2CC[C@@H](C)[C@@](O)(O2)C(=O)C(=O)N2CCCC[C@H]2C(=O)O[C@H]([C@H](C)C[C@@H]2CC[C@@H](OC(=O)C(C)(CO)CO)[C@H](OC)C2)CC(=O)[C@H](C)/C=C(\C)[C@@H](O)[C@@H](OC)C(=O)[C@H](C)C[C@H](C)/C=C/C=C/C=C/1C [Temsirolimus]
prolonged progression-free survival [3]: up to 3.8 months
